Test results from patent US8497303B2, “Method to enhance aqueous solubility of poorly soluble actives” (Dow Global Technologies LLC, priority 2008, dated 2013).
Like-named read-outs stand apart in the source and are kept apart here.

Legend:
[1] = for Percent Loading Using MPEG 350: saturated solution, HPLC
Procedure: The solution is then stirred with a vortex mixer for approximately 1 to 2 minutes, then shaken with an automated shaker for about 45 minutes. […] The sample is then left overnight in a water bath at about 29° C.
The solution is stirred with a vortex mixer for approximately 1 to 2 minutes, then shaken with an automated shaker for about 45 minutes. […] The sample is left overnight in a water bath at about 30° C.
The solutions are then filtered through a syringe filter and the concentrations are characterized by HPLC. The percent water in the MPEG solutions varies from 0 to 20 percent.
The solution is then filtered through a syringe filter and the concentration is characterized by HPLC. The percent water in the MPEG solutions varies from 0 to 20 percent.

[2] = for Percent Loading Using PEG 400: saturated solution, HPLC
Procedure: For comparison, solutions of PEG 400 and water are prepared in an analogous manner to those including the MPEG 350.
For comparison, solutions of PEG 400 and water are prepared in an analogous manner.

SMILES: COc1ccc2cc([C@H](C)C(=O)O)ccc2c1 [Naproxen, naproxen]
- Increase in loading compared to the MPEG 350 solution containing no water ([1]; 95:5 MPEG 350:water vs MPEG 350 without water): 24.4%
- More loading with 95:5 MPEG 350:water blend compared to the best PEG 400:water blend ([1]; 95:5 MPEG 350:water vs PEG 400:water blend with highest loading): 29.2 weight percent
- Appearance of solution in MPEG 350 ([1]; approximately 15.4 weight percent solution, left overnight in water bath at about 30° C.): some suspended material
- Amount of drug loading in MPEG 350 solution higher than in PEG 400 solution ([1]; neat MPEG 350 vs neat PEG 400): approximately 13.6%

SMILES: CC(C)Cc1ccc(C(C)C(=O)O)cc1 (centres unmarked) [Ibuprofen, ibuprofen]
- Solubility (maximum loading) in PEG 400 [2]: 21.6±0.8 weight percent
- Percent Loading Using PEG 400 ([2]; 0 percent water in PEG 400): 21.60%
- Percent Loading Using PEG 400 ([2]; 5 percent water in PEG 400): 24.31%
- Percent Loading Using PEG 400 ([2]; 10 percent water in PEG 400): 21.48%
- Percent Loading Using PEG 400 ([2]; 15 percent water in PEG 400): 17.24%
- Percent Loading Using PEG 400 ([2]; 20 percent water in PEG 400): 11.56%

SMILES: CC(=O)Nc1ccc(O)cc1 [Acetaminophen]
- Amount solubilized by neat PEG 400 solution relative to neat MPEG 350 solution [2]: slightly more
- Percent Loading Using PEG 400 ([2]; 0 percent water in PEG 400): 16.82%
- Percent Loading Using PEG 400 ([2]; 5 percent water in PEG 400): 20.62%
- Percent Loading Using PEG 400 ([2]; 10 percent water in PEG 400): 21.78%
- Percent Loading Using PEG 400 ([2]; 15 percent water in PEG 400): 22.12%
- Percent Loading Using PEG 400 ([2]; 20 percent water in PEG 400): 21.59%
- Maximum solubility for MPEG 350:water blends greater than that for PEG 400:water blends [1]: 10.6%
- Percent Loading Using MPEG 350 ([1]; 0 percent water in MPEG 350): 16.20%
- Percent Loading Using MPEG 350 ([1]; 5 percent water in MPEG 350): 21.93%
- Percent Loading Using MPEG 350 ([1]; 10 percent water in MPEG 350): 23.62%
- Percent Loading Using MPEG 350 ([1]; 15 percent water in MPEG 350): 24.47%
- Percent Loading Using MPEG 350 ([1]; 20 percent water in MPEG 350): 24.01%
- Loading with MPEG:water blends relative to PEG:water blends ([1]; when water is added): higher loading
